Activity calls are given as the source filed them. The calls are words filed in the database; no cut-off is given here.
Assays:
[1] = Prodrug activation in phosphate buffer saline at pH 7.4 assessed as Escherichia coli nitroreductase mediated 3-fluoro-10-hydroxy-14-methyl-8,13,13b,14-tetrahydroindolo[2',3':3,4]pyrido[2,1-b]quinazolin-5(7H)-one formation by measuring fluorescence emission intensity at 25 uM incubated for 2 hrs in presence of NADH by fluorescence spectrophotometric analysis; settings: isolated protein, pH 7.4, 2 h
[2] = Prodrug activation in phosphate buffer saline at pH 7.4 assessed as Escherichia coli nitroreductase mediated 3-fluoro-10-hydroxy-14-methyl-8,13,13b,14-tetrahydroindolo[2',3':3,4]pyrido[2,1-b]quinazolin-5(7H)-one formation by measuring fold increase in fluorescence emission intensity at 25 uM incubated for 2 hrs in presence of NADH by fluorescence spectrophotometric analysis; settings: isolated protein, pH 7.4, 2 h
[3] = Prodrug activation in phosphate buffer saline at pH 7.4 assessed as Escherichia coli nitroreductase mediated 3-fluoro-10-hydroxy-14-methyl-8,13,13b,14-tetrahydroindolo[2',3':3,4]pyrido[2,1-b]quinazolin-5(7H)-one formation by measuring fluorescence emission intensity at 10 uM incubated for 2 hrs in presence of 1 to 7 microg/ml NTR and NADH by fluorescence spectrophotometric analysis; settings: isolated protein, pH 7.4, 2 h
[4] = Prodrug activation in phosphate buffer saline at pH 7.4 assessed as Escherichia coli nitroreductase mediated 3-fluoro-10-hydroxy-14-methyl-8,13,13b,14-tetrahydroindolo[2',3':3,4]pyrido[2,1-b]quinazolin-5(7H)-one formation by measuring fluorescence emission intensity at 25 uM incubated for 0.5 to 2 hrs in presence of 1 to 7 microg/ml NTR and NADH by fluorescence spectrophotometric analysis; settings: isolated protein, pH 7.4, 25 µM, time 0.5-2 hrs
HCT-116 [5] = experiment: Cytotoxicity against human HCT-116 cells assessed as inhibition of cell growth incubated for 72 hrs under hypoxic conditions by CCK-8 assay; assay type: functional, cell-based; settings: HCT-116, 72 h
A549 [6] = experiment: Cytotoxicity against human A549 cells assessed as inhibition of cell growth incubated for 72 hrs under hypoxic conditions by CCK-8 assay; assay type: functional, cell-based; settings: A549, 72 h
HCT-116 [7] = experiment: Cytotoxicity against human HCT-116 cells assessed as inhibition of cell growth incubated for 72 hrs under normoxic conditions by CCK-8 assay; assay type: functional, cell-based; settings: HCT-116, 72 h
A549 [8] = experiment: Cytotoxicity against human A549 cells assessed as inhibition of cell growth incubated for 72 hrs under normoxic conditions by CCK-8 assay; assay type: functional, cell-based; settings: A549, 72 h
[9] = Cytotoxicity against human HUVEC cells assessed as inhibition of cell growth incubated for 72 hrs under normoxic condition by CCK-8 assay; assay type: toxicity, cell-based
HCT-116 [10] = experiment: Induction of cell cycle arrest in human HCT-116 cells assessed as accumulation of cells at G1 phase at 0.04 uM measured after 24 hrs by flow cytometric analysis (reference value: 48.40 %); assay type: functional
HCT-116 [11] = experiment: Induction of cell cycle arrest in human HCT-116 cells assessed as accumulation of cells at S phase at 0.04 uM measured after 24 hrs by flow cytometric analysis (reference value: 33.15 %); assay type: functional
HCT-116 [12] = experiment: Induction of cell cycle arrest in human HCT-116 cells assessed as accumulation of cells at G1 phase at 0.2 uM measured after 24 hrs by flow cytometric analysis (reference value: 48.40 %); assay type: functional
A549 [13] = experiment: Induction of cell cycle arrest in human A549 cells assessed as accumulation of cells at G2/M phase at 1.0 uM measured after 24 hrs by flow cytometric analysis (reference value: 3.81%); assay type: functional
HCT-116 [14] = experiment: Induction of cell cycle arrest in human HCT-116 cells assessed as accumulation of cells at G1 phase at 1.0 uM measured after 24 hrs by flow cytometric analysis (reference value: 48.40 %); assay type: functional
A549 [15] = experiment: Induction of cell cycle arrest in human A549 cells assessed as accumulation of cells at G2/M phase at 0.2 uM measured after 24 hrs by flow cytometric analysis (reference value: 3.81%); assay type: functional
A549 [16] = experiment: Induction of cell cycle arrest in human A549 cells assessed as accumulation of cells at G2/M phase at 0.04 uM measured after 24 hrs by flow cytometric analysis relative to control; assay type: functional
HCT-116 [17] = experiment: Induction of cell cycle arrest in human HCT-116 cells assessed as accumulation of cells at S phase at 1.0 uM measured after 24 hrs by flow cytometric analysis (reference value: 33.15 %); assay type: functional
HCT-116 [18] = experiment: Induction of cell cycle arrest in human HCT-116 cells assessed as accumulation of cells at S phase at 0.2 uM measured after 24 hrs by flow cytometric analysis (reference value: 33.15 %); assay type: functional
HCT-116 [19] = experiment: Induction of cell cycle arrest in human HCT-116 cells assessed as accumulation of cells at G2/M phase at 0.04 uM measured after 24 hrs by flow cytometric analysis (reference value: 18.45 %); assay type: functional
HCT-116 [20] = experiment: Induction of cell cycle arrest in human HCT-116 cells assessed as accumulation of cells at G2/M phase at 0.2 uM measured after 24 hrs by flow cytometric analysis (reference value: 18.45 %); assay type: functional
HCT-116 [21] = experiment: Induction of cell cycle arrest in human HCT-116 cells assessed as accumulation of cells at G2/M phase at 1.0 uM measured after 24 hrs by flow cytometric analysis (reference value: 18.45 %); assay type: functional
HCT-116 [22] = experiment: Induction of apoptosis in human HCT-116 cells assessed as apoptotic cells at 0.04 to 1.0 uM measured after 48 hrs by flow cytometric analysis (reference value: 4.57%); assay type: functional; settings: dose 0.04-1 µM
A549 [23] = experiment: Induction of apoptosis in human A549 cells assessed as apoptotic cells at 0.04 to 1.0 uM measured after 48 hrs by flow cytometric analysis (reference value: 6.44%); assay type: functional; settings: dose 0.04-1 µM
[24] = target: T1, DNA topoisomerase 1 (Homo sapiens) (UniProt P11387); experiment: Inhibition of topoisomerase 1 (unknown origin) […] activity using pBR322 DNA as substrate at 125 to 250 uM incubated for 15 mins by ethidium bromide staining based agarose gel electrophoresis; settings: dose 125-250 µM
T1 sequence (whole entry): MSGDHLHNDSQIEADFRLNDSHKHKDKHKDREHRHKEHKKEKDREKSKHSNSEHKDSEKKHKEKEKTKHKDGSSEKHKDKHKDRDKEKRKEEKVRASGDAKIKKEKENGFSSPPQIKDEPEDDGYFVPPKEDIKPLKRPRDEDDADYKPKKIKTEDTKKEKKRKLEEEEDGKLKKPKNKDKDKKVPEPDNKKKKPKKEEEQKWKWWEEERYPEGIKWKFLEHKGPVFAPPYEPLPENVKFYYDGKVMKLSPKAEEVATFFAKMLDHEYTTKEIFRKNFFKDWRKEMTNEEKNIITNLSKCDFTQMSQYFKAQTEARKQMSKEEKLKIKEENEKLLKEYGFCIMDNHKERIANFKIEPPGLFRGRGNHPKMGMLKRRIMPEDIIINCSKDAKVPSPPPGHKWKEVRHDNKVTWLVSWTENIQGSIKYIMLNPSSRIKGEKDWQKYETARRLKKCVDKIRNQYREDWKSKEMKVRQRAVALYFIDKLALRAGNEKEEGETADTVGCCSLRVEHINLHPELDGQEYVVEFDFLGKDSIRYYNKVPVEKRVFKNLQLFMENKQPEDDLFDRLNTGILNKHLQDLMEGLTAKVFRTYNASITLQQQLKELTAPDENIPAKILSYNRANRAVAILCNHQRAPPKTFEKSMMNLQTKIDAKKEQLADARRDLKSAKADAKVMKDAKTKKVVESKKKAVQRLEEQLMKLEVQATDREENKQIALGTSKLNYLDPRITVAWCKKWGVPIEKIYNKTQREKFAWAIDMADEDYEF

[25] = Metabolic stability in ICR mouse liver microsomes assessed as terminal half life; assay type: ADME, Microsome; settings: read-out: beta t1/2
[26] = Metabolic stability in ICR mouse liver microsomes assessed as intrinsic clearance; assay type: ADME, Microsome; settings: read-out: CLH
HCT-116 [27] = experiment: Antitumor activity against human HCT-116 cells xenografted in male nude mouse assessed as tumor growth inhibition at 10 mg/kg, ip administered twice daily for 14 consecutive days; assay type: functional; settings: read-out: TGI
[28] = Toxicity in male nude mouse assessed as change in body weight at 10 mg/kg, ip administered twice daily for 14 consecutive days; assay type: organism-based; settings: in vivo
[29] = Drug uptake in male nude mouse kidney xenografted in human HCT-116 cells at 10 mg/kg, […] administered via tail vein and measured at 12 hrs post injection by fluorescence imaging analysis; assay type: ADME, organism-based; settings: in vivo
[30] = Drug uptake in male nude mouse tumor xenografted in human HCT-116 cells at 10 mg/kg, […] administered via tail vein and measured at 12 hrs post injection by fluorescence imaging analysis; assay type: ADME, organism-based, Neoplasm; settings: in vivo
Bacteroides fragilis = experiment: Antibacterial activity against Bacteroides fragilis; assay type: functional
HCT-116 [31] = experiment: Binding affinity to NTR in human HCT-116 cells assessed as increase in fluorescence intensity at 25 uM incubated for 2 hrs under 2 to 10 % hypoxic condition by confocal fluorescence imaging based analysis; assay type: cell-based
A549 [32] = experiment: Binding affinity to NTR in human A549 cells assessed as increase in fluorescence intensity at 25 uM incubated for 2 hrs under 2 to 10 % hypoxic condition by confocal fluorescence imaging based analysis; assay type: cell-based
HUVEC = experiment: Binding affinity to NTR in human HUVEC cells assessed as fluorescence intensity at 10 to 100 uM incubated for 2 hrs by confocal fluorescence microscopic analysis; assay type: cell-based; settings: dose 10-100 µM
HCT-116 [33] = experiment: Binding affinity to NTR in human HCT-116 cells assessed as increase in fluorescence intensity at 10 to 100 uM incubated for 2 hrs by confocal fluorescence microscopic analysis; assay type: cell-based; settings: dose 10-100 µM
A549 [34] = experiment: Binding affinity to NTR in human A549 cells assessed as increase in fluorescence intensity at 10 to 100 uM incubated for 2 hrs by confocal fluorescence microscopic analysis; assay type: cell-based; settings: dose 10-100 µM
[35] = Drug localization in lysosome of human HCT-116 cells at 25 uM incubated for 2 hrs by Lyso-tracker red dye based confocal imaging analysis; assay type: ADME, subcellular; settings: hct-116, 2 h
[36] = Drug localization in lysosome of human A549 cells at 25 uM incubated for 2 hrs by Lyso-tracker red dye based confocal imaging analysis; assay type: ADME, subcellular; settings: a549, 2 h
[37] = Drug localization in Mitochondria of human HCT-116 cells at 25 uM incubated for 2 hrs by Mito-tracker green dye based confocal imaging analysis; assay type: ADME; settings: hct-116, 2 h
[38] = Drug localization in endoplasmic reticulum of human HCT-116 cells at 25 uM incubated for 2 hrs by ER-tracker red dye based confocal imaging analysis; assay type: ADME, subcellular; settings: hct-116, 2 h
[39] = Drug localization in Cell membrane of human HCT-116 cells at 25 uM incubated for 2 hrs by Dio- tracker green dye based confocal imaging analysis; assay type: ADME, cell membranes; settings: hct-116, 2 h
[40] = Drug localization in nucleus of human HCT-116 cells at 25 uM incubated for 2 hrs by […] dye based confocal imaging analysis; assay type: ADME, subcellular; settings: hct-116, 2 h
HCT-116 [41] = experiment: Antitumor activity against human HCT-116 cells xenografted in male nude mouse assessed as tumor growth inhibition at 0.5 mg/kg, ip administered twice daily for 14 consecutive days; assay type: functional; settings: read-out: TGI
[42] = Toxicity in male nude mouse assessed as change in body weight at 0.5 mg/kg, ip administered twice daily for 14 consecutive days; assay type: organism-based; settings: in vivo

CN1c2ccc(F)cc2C(=O)N2CCc3c([nH]c4ccc(OC(=O)/C=C/C(=O)OCc5cc6ccc(OCc7ccc([N+](=O)[O-])cc7)cc6oc5=O)cc34)C21 (stereo not given)
Drug metabolism [1]: metabolite_detected | fold change (FC) [2]: 14 | Drug metabolism [3]: metabolite_detected | Drug metabolism [4]: metabolite_detected | IC50 (HCT-116 [5]): 71 nM | IC50 (A549 [6]): 38 nM | IC50 (HCT-116 [7]): 145 nM | IC50 (A549 [8]): 255 nM | IC50 at 72 h [9]: 120 nM | Activity (HCT-116 [10]): 43.77% | Activity (HCT-116 [11]): 32.22% | Activity (HCT-116 [12]): 7.74% | Activity (A549 [13]): 59.51% | Activity (HCT-116 [14]): 0.56% | Activity (A549 [15]): 47.03% | Activity (A549 [16]): 10.87% | Activity (HCT-116 [17]): 2.78% | Activity (HCT-116 [18]): 17.36% | Activity (HCT-116 [19]): 24.01% | Activity (HCT-116 [20]): 74.9% | Activity (HCT-116 [21]): 96.66% | Activity (HCT-116 [22]): 13.04% | Activity (A549 [23]): 18.27% | inhibition [24]: Weak_effect | half-life [25]: 9.53 h | CLint scaled [26]: 9.54 mL/min/kg | inhibition in vivo at 10 mg/kg (HCT-116 [27]): 76.1% | Activity [28]: Non-toxic | Drug uptake [29]: Active | Drug uptake [30]: Active | MIC50 (Bacteroides fragilis): > 64 µg/mL | Activity (HCT-116 [31]): Active | Activity (A549 [32]): Active | Activity (HUVEC): Active; Weak Fluorescence Observed | Activity (HCT-116 [33]): Active; Stronger Fluorescence Intensity Observed | Activity (A549 [34]): Active | Drug uptake [35]: Active | Drug uptake [36]: Active | Drug uptake [37]: Active | Drug uptake [38]: Active | Drug uptake [39]: Active | Drug uptake [40]: Active

CN1c2ccc(F)cc2C(=O)N2CCc3c([nH]c4ccc(OC(=O)CCC(=O)OCc5cc6ccc(OCc7ccc([N+](=O)[O-])cc7)cc6oc5=O)cc34)C21 (stereo not given)
Drug metabolism [1]: metabolite_detected

CC[C@@]1(O)C(=O)OCc2c1cc1n(c2=O)Cc2cc3c(CN(C)C)c(O)ccc3nc2-1 [TOPOTECAN]
inhibition in vivo at 0.5 mg/kg (HCT-116 [41]): 82.5% | Activity [42]: Toxic

— ChEMBL document CHEMBL6182882, “Evodiamine-Based Nitroreductase Responsive Theranostic Agents for Treatment of Colon Cancer” (J Med Chem, 2025)
